Measurements reported in patent publication US6410034B1, “Dermal absorption-promoting agent” (Takasago International Corporation, priority 1998, dated 2002).
“Also recorded” adds a separate entry of the source.

How the values were obtained:
skin of Yucatan Micropig [1] = test: Dermal permeation test of antipyrine (ANP), Example 1, water/ethanol samples, modified Franz diffusion cell; type: in vitro ADME; conditions: promoting agent dissolved in ethanol and combined with water, 37° C., 30 to 48 hours
Description: (§1) A lipophilic agent indomethacin (IM) and a hydrophilic agent antipyrine (ANP) were used to compare the dermal absorption-promoting effect of p-menthane-3,8-diol (MDM: mixture of trans and cis forms) with those of l-menthol (LM) and 3-l-menthoxypropane-1,2-diol (MPD) together with a control.
(§2) According to the formulations shown in Table 1 (IM) and Table 2 (ANP), each of the three dermal absorption-promoting agents was employed, dissolved in ethanol and combined with water to prepare a sample. The samples thus prepared were stored at 37° C. until use.
(§3) A skin of Yucatan Micropig [5 month-old, male, NIPPON CHARLES RIVER (KK)] stored frozen at −80° C. was thawed at room temperature and, after removing an unwanted fat adhering to the skin, cut into pieces, each in about 2 cm square, which were subjected to a permeation test.
(§4) In the permeation test, a diffusion cell of a modified Franz type (valid surface area: 1.1 cm^2, receptor phase: 16 ml) containing a phosphate buffer, pH7.1, was provided on the receptor phase side, which was stirred with a star-head magnet at 600 rpm with keeping at 37° C. […] A receptor phase fractionated was subjected to a high pressure liquid chromatography (HPLC) to quantify the drug which had permeated. […]
(§5) IM and ANP were determined using an UV spectrophotometer model SPD-6A (SHIMADZU) at wavelengths of 254 nm and 245 nm, respectively. […]

skin of Yucatan Micropig [2] = test: Dermal permeation test of IM, Example 2, water/1,3-butylene glycol samples; type: in vitro ADME; conditions: indomethacin 0.05 g, promoting agent 0.3 g, water 6.0 ml / 1,3-BG 4.0 ml
Description: as §3
(§6) In the permeation test, a diffusion cell of a modified Franz type (valid surface area: 1.1 cm^2, receptor phase: 16 ml) containing a phosphate buffer, pH7.1, was provided on the receptor phase side, which was stirred with a star-head magnet at 600 rpm with keeping at 37° C. On the donor side, 0.5 ml of a sample solution was contained and closed with a glass ball in order to prevent the evaporation of the sample solution. At a predetermined time, an aliquot was sampled and an equal volume of a buffer solution was supplemented. A receptor phase fractionated was subjected to a high pressure liquid chromatography (HPLC) to quantify the drug which had permeated. The permeation test was continued over a period of 30 to 48 hours.
A lipophilic agent indomethacin (IM) was used to compare the dermal absorption-promoting effect of p-menthane-3,8-diol (MDM: mixture of trans and cis forms) with those of l-menthol (LM) together with a control.

mosquito = conditions: known from prior art; cited from earlier work
skin of Yucatan Micropig [3] = test: Dermal permeation test of IM, Example 3, water/1,3-butylene glycol samples, MDM, MPD and 1:1 combination; type: in vitro ADME; conditions: indomethacin 0.05 g, promoting agent 0.3 g total (combination 0.15 g + 0.15 g), water 6.0 ml / 1,3-BG 4.0 ml
Description: as §3
as §6, with “hours. […]” for “hours.”

skin of Yucatan Micropig [4] = test: Dermal permeation test of indomethacin (IM), Example 1, water/ethanol samples, modified Franz diffusion cell; type: in vitro ADME; conditions: indomethacin 0.05 g, promoting agent 0.3 g, water 6.0 ml / ethanol 4.0 ml, 37° C., 30 to 48 hours
Description: as §1, §2, §3, §4, §5

[5] = combined together with indomethacin; YAKUZAIGAKU vol.56 No.3 (1996), DDS Vol. 12 No. 2 (1997); cited from earlier work
[6] = isosorbide dinitrate in an aqueous suspension; Fragrance Journal, p34, 1996-4; cited from earlier work

SMILES: CC1CCC(C(C)(C)O)C(O)C1 (centres unmarked) [MDM, p-menthane-3,8-diol]
- dermal permeation-promoting ability (cumulative permeation of ANP vs time, FIG. 2) (skin of Yucatan Micropig [1]): exhibited a dermal permeation-promoting ability, although the ability was not as high as that of LM and MPD; also recorded: promoted the dermal permeation of ANP
- dermal permeation-promoting ability (cumulative permeation of ANP vs time, FIG. 2) (skin of Yucatan Micropig [1]; listed as p-menthane-3,8-diol): promoted the dermal permeation of both of lipophilic agent indomethacin and hydrophilic antipyrine
- dermal permeation-promoting ability (cumulative permeation of IM vs time, FIG. 3) (skin of Yucatan Micropig [2]): exhibited a dermal permeation-promoting ability, although the ability was not as high as that of LM; also recorded: promoted the dermal permeation of IM
- repelling effect on a mosquito (mosquito): known to have a repelling effect on a mosquito
- dermal permeation-promoting ability (cumulative permeation of IM vs time, FIG. 4) (skin of Yucatan Micropig [3]): higher than that of MPD
- dermal permeation-promoting ability (cumulative permeation of IM vs time, FIG. 1) (skin of Yucatan Micropig [4]): not as high as that of LM but was higher than that of MPD; also recorded: promoted the dermal permeation of IM
- dermal permeation-promoting ability (cumulative permeation of IM vs time, FIG. 1) (skin of Yucatan Micropig [4]; listed as p-menthane-3,8-diol): promoted the dermal permeation of both of lipophilic agent indomethacin and hydrophilic antipyrine

SMILES: CC1CCC(C(C)C)C(OCC(O)CO)C1 (stereo not drawn) [MPD, 3-l-menthoxypropane-1,2-diol]
- promotion of dermal absorption of indomethacin [5]: somewhat lower than that of l-menthol; also recorded: promotes the dermal absorption of indomethacin

SMILES: CC12CCC(CC1)C(C)(C)O2 [1,8-cineol]
- promotion of dermal permeation of isosorbide dinitrate [6]: promoted greatly

SMILES: CC(C)[C@@H]1CC[C@@H](C)C[C@H]1O [LM, l-menthol]
- promotion of dermal permeation of isosorbide dinitrate [6]: promoted greatly
- promotion of dermal absorption of indomethacin [5]: promotes the dermal absorption of indomethacin
